According to patent US7138361B2, “Herbicidal heterocycles” (E. I. du Pont de Nemours and Company, priority 2000, dated 2006):

Experiments:
Type in all cases: in vivo
[1] = system: Surinam grass (Brachiaria decumbens); experiment: Test B postemergence; details: 13 to 15 days
Outline: (§1)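 Post-treatment, species sat 13–15 days under greenhouse conditions before visual scoring against controls, 0 (no effect) through 100 (complete control). Application preemergence to sown seeds or postemergence at 1- to 4-leaf stage, using a non-phytotoxic solvent/surfactant formulation.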

[2] = system: barnyardgrass (Echinochloa crus-galli); experiment: Test B postemergence; details: 13 to 15 days
Outline: as §1

[3] = system: blackgrass (Alopecurus myosuroides); experiment: Test B postemergence; details: 13 to 15 days
Outline: as §1

[4] = system: cocklebur (Xanthium strumarium); experiment: Test B postemergence; details: 13 to 15 days
Outline: as §1

corn (Zea mays) [5] = experiment: Test B postemergence; details: 13 to 15 days
Outline: as §1

[6] = system: crabgrass (Digitaria sanguinalis); experiment: Test B postemergence; details: 13 to 15 days
Outline: as §1

[7] = system: giant foxtail (Setaria faberii); experiment: Test B postemergence; details: 13 to 15 days
Outline: as §1

[8] = system: lambsquarters (Chenopodium album); experiment: Test B postemergence; details: 13 to 15 days
Outline: as §1

[9] = system: morning glory (Ipomoea hederacea); experiment: Test B postemergence; details: 13 to 15 days
Outline: as §1

[10] = system: pigweed (Amaranthus retroflexus); experiment: Test B postemergence; details: 13 to 15 days
Outline: as §1

[11] = system: velvetleaf (Abutilon theophrasti); experiment: Test B postemergence; details: 13 to 15 days
Outline: as §1

[12] = system: wheat (Triticum aestivum); experiment: Test B postemergence; details: 13 to 15 days
Outline: as §1

wild oat (Avena fatua) = experiment: Test B postemergence; details: 13 to 15 days
Outline: as §1

[13] = system: Surinam grass (Brachiaria decumbens); experiment: Test B preemergence; details: scale 0 to 100, 0 no effect, 100 complete control
Outline: as §1

[14] = system: barnyardgrass (Echinochloa crus-galli); experiment: Test B preemergence; details: scale 0 to 100, 0 no effect, 100 complete control
Outline: as §1

[15] = system: cocklebur (Xanthium strumarium); experiment: Test B preemergence; details: scale 0 to 100, 0 no effect, 100 complete control
Outline: as §1

corn (Zea mays) [16] = experiment: Test B preemergence; details: scale 0 to 100, 0 no effect, 100 complete control
Outline: as §1

[17] = system: crabgrass (Digitaria sanguinalis); experiment: Test B preemergence; details: scale 0 to 100, 0 no effect, 100 complete control
Outline: as §1

[18] = system: giant foxtail (Setaria faberii); experiment: Test B preemergence; details: scale 0 to 100, 0 no effect, 100 complete control
Outline: as §1

[19] = system: lambsquarters (Chenopodium album); experiment: Test B preemergence; details: scale 0 to 100, 0 no effect, 100 complete control
Outline: as §1

[20] = system: morning glory (Ipomoea hederacea); experiment: Test B preemergence; details: scale 0 to 100, 0 no effect, 100 complete control
Outline: as §1

[21] = system: pigweed (Amaranthus retroflexus); experiment: Test B preemergence; details: scale 0 to 100, 0 no effect, 100 complete control
Outline: as §1

rice (Oryza saliva) = experiment: Test B preemergence; details: scale 0 to 100, 0 no effect, 100 complete control
Outline: as §1

[22] = system: velvetleaf (Abutilon theophrasti); experiment: Test B preemergence; details: scale 0 to 100, 0 no effect, 100 complete control
Outline: as §1

[23] = system: smallflower flatsedge (Cyperus difformis); experiment: Test C flooded paddy test; details: for Flatsedge plant response rating: Flooded Paddy, scale 0 to 100, 0 no effect, 100 complete control; for Plant response rating, Flatsedge: flooded paddy test, scale 0 to 100 (0 no effect, 100 complete control)
Outline: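 Visually assessed vs untreated controls 12–14 d post-treatment (greenhouse). Flooded paddy plants were at the 2-leaf stage; scale 0 = no effect, 100 = complete control.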

Nightshade = experiment: Test C preemergence; details: Rate 250 g/ha, visual evaluation after 12 to 14 days
Sunflower = experiment: Test C preemergence; details: Rate 250 g/ha, visual evaluation after 12 to 14 days
[24] = Rate 125 g/ha, scale 0 (no effect) to 100 (complete control)
[25] = Rate 500 g/ha, scale 0 to 100, 0 is no effect, 100 is complete control

In the case of `O=C1C(n2ccc(C3CC3)n2)CCN1c1cccc(C(F)(F)F)c1` (stereo not shown) [Compound 8], the “Plant response rating, Surinam grass” value [1, 24] is reported as 0, the “Plant response rating, Surinam grass” value [1, 25] is reported as 0 and the “Plant response rating, Barnyardgrass” value [2, 24] is reported as 0. The “Plant response rating, Barnyardgrass” value [2, 25] was 0, the “Plant response rating, Blackgrass” value [3, 24] was 0 and the “Plant response rating, Blackgrass” value [3, 25] was 0. The “Plant response rating, Cocklebur” value [4, 24] was 0, the “Plant response rating, Cocklebur” value [4, 25] was 10 and the “Plant response rating, Corn” value (corn (Zea mays) [5]; [24]) was 0. For the same compound, the “Plant response rating, Corn” value (corn (Zea mays) [5]; [25]) was 0, the “Plant response rating, Crabgrass” value [6, 24] was 0 and the “Plant response rating, Crabgrass” value [6, 25] was 0. The “Plant response rating, Foxtail, Giant” value [7, 24] was 0, the “Plant response rating, Foxtail, Giant” value [7, 25] was 0 and the “Plant response rating, Lambsquarters” value [8, 24] was 30. The “Plant response rating, Lambsquarters” value [8, 25] was 50, the “Plant response rating, Morningglory” value [9, 24] was 0 and the “Plant response rating, Morningglory” value [9, 25] was 0. The “Plant response rating, Pigweed” value [10, 24] was 0, the “Plant response rating, Pigweed” value [10, 25] was 10 and the “Plant response rating, Velvetleaf” value [11, 24] was 0. The “Plant response rating, Velvetleaf” value [11, 25] was 0, the “Plant response rating, Wheat” value [12, 24] was 0 and the “Plant response rating, Wheat” value [12, 25] was 0. For the same compound, the “Plant response rating, Wild Oat” value (wild oat (Avena fatua); [24]) was 0, the “Plant response rating, Wild Oat” value (wild oat (Avena fatua); [25]) was 0 and the “Plant response rating, Surinam grass” value ([13]; Preemergence, Rate 500 g/ha) was 70. For the same compound, the “Plant response rating, Surinam grass” value ([13]; preemergence, Rate 125 g/ha) was 20, the “Plant response rating, Barnyardgrass” value ([14]; Preemergence, Rate 500 g/ha) was 70 and the “Plant response rating, Barnyardgrass” value ([14]; preemergence, Rate 125 g/ha) was 0. The “Plant response rating, Cocklebur” value ([15]; Preemergence, Rate 500 g/ha) was 0, the “Plant response rating, Cocklebur” value ([15]; preemergence, Rate 125 g/ha) was 0 and the “Plant response rating, Corn” value (corn (Zea mays) [16]; Preemergence, Rate 500 g/ha) was 0. For the same compound, the “Plant response rating, Corn” value (corn (Zea mays) [16]; preemergence, Rate 125 g/ha) was 0, the “Plant response rating, Crabgrass” value ([17]; Preemergence, Rate 500 g/ha) was 100 and the “Plant response rating, Crabgrass” value ([17]; preemergence, Rate 125 g/ha) was 30. For the same compound, the “Plant response rating, Foxtail, Giant” value ([18]; Preemergence, Rate 500 g/ha) was 90, the “Plant response rating, Foxtail, Giant” value ([18]; preemergence, Rate 125 g/ha) was 40 and the “Plant response rating, Lambsquarters” value ([19]; Preemergence, Rate 500 g/ha) was 100. The “Plant response rating, Lambsquarters” value ([19]; preemergence, Rate 125 g/ha) was 0, the “Plant response rating, Morningglory” value ([20]; Preemergence, Rate 500 g/ha) was 0 and the “Plant response rating, Morningglory” value ([20]; preemergence, Rate 125 g/ha) was 0. For the same compound, the “Plant response rating, Pigweed” value ([21]; Preemergence, Rate 500 g/ha) was 100, the “Plant response rating, Pigweed” value ([21]; preemergence, Rate 125 g/ha) was 20 and the “Plant response rating, Rice” value (rice (Oryza saliva); Preemergence, Rate 500 g/ha) was 0. For the same compound, the “Plant response rating, Rice” value (rice (Oryza saliva); preemergence, Rate 125 g/ha) was 0, the “Plant response rating, Velvetleaf” value ([22]; Preemergence, Rate 500 g/ha) was 0 and the “Plant response rating, Velvetleaf” value ([22]; preemergence, Rate 125 g/ha) was 0. The “Flatsedge plant response rating” value ([23]; Rate 250 g/ha) was 100, the “Flatsedge plant response rating” value ([23]; Rate 500 g/ha) was 100 and the “Flatsedge plant response rating” value ([23]; rate of this column group stands in head line r653, not shown (group before Rate 500 g/ha)) was 100. The “Plant response rating, Flatsedge” value ([23]; Rate 62 g/ha) was 30, the “Plant response rating, Flatsedge” value ([23]; Rate 125 g/ha) was 90 and the “Plant response rating (0 to 100), Nightshade” value (Nightshade) was 0. The “Plant response rating (0 to 100), Sunflower” value (Sunflower) was 0.

For `CC(C)(C)c1ccn(C2CCN(c3cccc(Br)c3)C2=O)n1` (stereo not shown) [Compound 33], the “Plant response rating, Surinam grass” value [1, 24] was 0, the “Plant response rating, Surinam grass” value [1, 25] was 0 and the “Plant response rating, Barnyardgrass” value [2, 24] was 0. For the same compound, the “Plant response rating, Barnyardgrass” value [2, 25] was 0, the “Plant response rating, Blackgrass” value [3, 24] was 0 and the “Plant response rating, Blackgrass” value [3, 25] was 0. The “Plant response rating, Cocklebur” value [4, 24] was 0, the “Plant response rating, Cocklebur” value [4, 25] was 10 and the “Plant response rating, Corn” value (corn (Zea mays) [5]; [24]) was 0. For the same compound, the “Plant response rating, Corn” value (corn (Zea mays) [5]; [25]) was 0, the “Plant response rating, Crabgrass” value [6, 24] was 0 and the “Plant response rating, Crabgrass” value [6, 25] was 0. For the same compound, the “Plant response rating, Foxtail, Giant” value [7, 24] was 0, the “Plant response rating, Foxtail, Giant” value [7, 25] was 20 and the “Plant response rating, Lambsquarters” value [8, 24] was 70. The “Plant response rating, Lambsquarters” value [8, 25] was 80, the “Plant response rating, Morningglory” value [9, 24] was 0 and the “Plant response rating, Morningglory” value [9, 25] was 10. The “Plant response rating, Pigweed” value [10, 24] was 70, the “Plant response rating, Pigweed” value [10, 25] was 80 and the “Plant response rating, Velvetleaf” value [11, 24] was 0. For the same compound, the “Plant response rating, Velvetleaf” value [11, 25] was 0, the “Plant response rating, Wheat” value [12, 24] was 0 and the “Plant response rating, Wheat” value [12, 25] was 0. The “Plant response rating, Wild Oat” value (wild oat (Avena fatua); [24]) was 0, the “Plant response rating, Wild Oat” value (wild oat (Avena fatua); [25]) was 0 and the “Plant response rating, Surinam grass” value ([13]; Preemergence, Rate 500 g/ha) was 60. For the same compound, the “Plant response rating, Surinam grass” value ([13]; preemergence, Rate 125 g/ha) was 30, the “Plant response rating, Barnyardgrass” value ([14]; Preemergence, Rate 500 g/ha) was 80 and the “Plant response rating, Barnyardgrass” value ([14]; preemergence, Rate 125 g/ha) was 30. For the same compound, the “Plant response rating, Cocklebur” value ([15]; preemergence, Rate 125 g/ha) was 0, the “Plant response rating, Corn” value (corn (Zea mays) [16]; Preemergence, Rate 500 g/ha) was 0 and the “Plant response rating, Corn” value (corn (Zea mays) [16]; preemergence, Rate 125 g/ha) was 0. For the same compound, the “Plant response rating, Crabgrass” value ([17]; Preemergence, Rate 500 g/ha) was 100, the “Plant response rating, Crabgrass” value ([17]; preemergence, Rate 125 g/ha) was 0 and the “Plant response rating, Foxtail, Giant” value ([18]; Preemergence, Rate 500 g/ha) was 80. The “Plant response rating, Foxtail, Giant” value ([18]; preemergence, Rate 125 g/ha) was 20, the “Plant response rating, Lambsquarters” value ([19]; Preemergence, Rate 500 g/ha) was 100 and the “Plant response rating, Lambsquarters” value ([19]; preemergence, Rate 125 g/ha) was 90. The “Plant response rating, Morningglory” value ([20]; Preemergence, Rate 500 g/ha) was 0, the “Plant response rating, Pigweed” value ([21]; Preemergence, Rate 500 g/ha) was 100 and the “Plant response rating, Rice” value (rice (Oryza saliva); Preemergence, Rate 500 g/ha) was 0. The “Plant response rating, Velvetleaf” value ([22]; Preemergence, Rate 500 g/ha) was 0, the “Plant response rating (0 to 100), Nightshade” value (Nightshade) was 0 and the “Plant response rating (0 to 100), Sunflower” value (Sunflower) was 30.
